Data published in patent publication US20260151403A1, “NEK7 DEGRADERS AND METHODS OF USE THEREOF” (Captor Therapeutics S.A., priority 2022, published 2026).

How the values were obtained:
[1] = molecular target: T1, [NEK7]-[compound of formula (I)]-[CRBN/DDB1] complex (Homo sapiens, UniProt Q8TDX7+Q96SW2); test: HTRF ternary complex assay; assay type: binding; settings: dose-response, 180 min at 25° C.; read-out: HTRF ternary complex Average pEC50 by molecule (converted)
Protocol: The effect of the molecular glue compounds of the invention on the formation of a ternary complex composed of [NEK7]-[compound of formula (I)]-[CRBN/DDB1] was investigated.
Mix solution of proteins and reagents was prepared: • 24 nM NEK7, 52.8 nM 6×His-CRBN/Strep-DDB1, 3 nM of Streptavidin-Eu cryptate […] and 6.67 nM of Anti-6×his-d2 […] was prepared in PPI Europium detection buffer (Cisbio) with 1 mM DTT.
The tested compounds in dose-response were dispensed onto a white 384-well low volume plate (Greiner, 784075). DMSO was backfilled to all wells, resulting in a final DMSO content of 0.5%. Wells containing only DMSO served as background.
The plate was sealed with transparent film and shaken using a VibroTurbulator for 60 sec at level 3.
The plate was then spun down shortly (10 s, 1000 rcf) and incubated at 25° C. for 180 min.
The read-out was performed with plate reader (Pherastar, BMG Labtech) in time resolved fluorescence mode. Filterset: TR 337 665 620.
The results were analyzed as follows: • 1) an average of fluorescence for background signal was calculated and used as a negative control; • 2) raw fluorescence values for tested compounds were normalized against negative controls; • 3) saturation curve was fitted to specific binding with Hill slope model; • 4) EC50 and pEC50 values were determined.

[2] = molecular target: T1, [NEK7]-[compound of formula (I)]-[CRBN/DDB1] complex; test: AlphaLISA dose response ternary complex formation assay; assay type: binding; settings: 1 μM compound, normalized to maximum signal of Compound 2 (positive control) and DMSO background; for activation at 1 µM: read-out: Normalized AlphaLISA ternary complex average signal at 1 μM molecule
Protocol: The effect of the molecular glue compounds of the invention on the formation of a ternary complex composed of [NEK7]-[compound of formula (I)]-[CRBN/DDB1] was investigated with two methods: AlphaLISA dose response assay or HTRF ternary complex assay.
Two types of protein solution were prepared: • 200 nM biotinylated NEK7, 40 μg/ml AlphaScreen Streptavidin-coated Donor Beads in HBS (10 mM HEPES, 150 mM NaCL, pH 7.4) buffer with 0.1% Tween-20 and 1 mM DTT, • 200 nM 6×His-CRBN/Strep-DDB1, 40 μg/ml AlphaLISA Anti-6×His Acceptor beads in HBS buffer with 0.1% Tween-20 and 1 mM DTT.
The prepared solutions were incubated at room temperature for 30 min and then the solution containing the donor beads was mixed with the solution containing the acceptor beads.
The tested compounds were dispensed onto a white 384-well AlphaPlate 384 SW. DMSO was backfilled to all wells, resulting in a final DMSO content of 2%. Wells containing only DMSO served as background. Next, 10 μl of solution with donor and acceptor beads was added to the wells.
The plate was sealed with transparent film and shaken using a VibroTurbulator for 60 sec at room temperature, level 3. The plate was then spun down shortly (10 s, 1000 rcf, room temperature) and incubated at 25° C. for 30 min.
The read-out was performed with PerkinElmer Enspire Multimode Plate Reader (method for AlphaLISA 384-well low volume, Filterset: λexc=680 nm, λem=615 nm).
The results were analyzed as follows: • 1) an average of luminescence for background signal was calculated and used as a negative control; • 2) average of the maximum measured luminescence for Compound 2 was calculated and used as an internal positive control; • 3) raw luminescence values were normalized against positive and negative controls; • 4) Normalized responses to Compound 2 were determined.

NEK7-HiBiT protein = NEK7-HiBiT protein (Homo sapiens, UniProt Q8TDX7); test: NEK7-HiBiT degradation assay (Nano-Glo HiBiT Lytic Assay) in HEK293 NEK7-HiBiT cells; assay type: cell-based; settings: 24 h, conc. 0.1, 1 and 10 μM tested, concentration of the table values not stated, mean of 3 technical replicates
Protocol: HEK293 NEK7-HiBiT cells were generated using CRISPR-Cas9 system. HEK293 cells were transformed with pSpCas9-BB-2A-Puro v2.0 plasmid carrying gRNA targeting the N-terminus of NEK7 and ssODN template containing the HiBiT tag sequence with flanking homology sequences. Neon Transfection System (Thermo Fisher Scientific) was used for electroporation. HEK293 NEK7-HiBiT cells were cultured with DMEM Glutamax (Gibco) supplemented with 10% heat inactivated FBS (Gibco). After transfection the culture medium was changed to DMEM Glutamax with 10% heat-inactivated FBS and 1% Penicillin-Streptomycin (Biowest) supplemented with Puromycin (2 μg/ml; Invivogen) for clonal selection. In order to isolate single cell clones for further validation and analysis, limiting dilution cloning in 96-well plates was performed. When the single clones reached confluency, HiBiT Lytic Assay (Promega) was performed in order to identify HiBiT positive clones. The clone selected for further studies was verified and validated using genotyping and HiBiT Blotting (Promega).
Selected clone of HEK293 NEK7-HiBiT cells was maintained in the DMEM-Glutamax medium supplemented with 10% of heat-inactivated FBS (Gibco) and 1% of Penicillin-Streptomycin Solution 100x (Biowest) at 37° C., 5% CO2 and subcultured every 2-3 days.
For Nano-Glo HiBiT Lytic Assay HEK293 NEK7-HiBiT cells were seeded at the density 2×10^3 cells in triplicates in the 40 μL of growth medium per single well on 384 well plate (Greiner Bio-One). Compounds or DMSO were added to treatment plates using Echo555 Liquid Handler and incubated at 37° C., 5% CO2 for 24 hours. After incubation 40 μL of Nano-Glo HiBiT Lytic Reagent (prepared according to the manufacturer protocol) were added to 40 μL of the cell culture medium present in each well. The plate content was briefly mixed (460 rpm) on an orbital shaker to ensure cell lysis. The plate was left at RT protected from light for another 10 min to stabilize the luminescent signal. The luminescence signal was measured using CLARIOstar Multimode Plate Reader. Focus and gain were adjusted to DMSO treated cells. The results were calculated as the NEK7-HiBiT % relative to the DMSO control of 3 technical replicates relative to the DMSO control.
HEK293 NEK7-HiBiT cells were treated with the compounds (conc. 0.1, 1 and 10 μM) or DMSO for 24 h. After incubation with compounds NEK7-HiBiT degradation was measured as a luminescence signal using CLARIOstar Multimode Plate reader.
Additionally, compounds reducing NEK7-HiBiT protein level by >=50% at 0.1 μM, were also identified.

T1 sequence (Q8TDX7 whole entry): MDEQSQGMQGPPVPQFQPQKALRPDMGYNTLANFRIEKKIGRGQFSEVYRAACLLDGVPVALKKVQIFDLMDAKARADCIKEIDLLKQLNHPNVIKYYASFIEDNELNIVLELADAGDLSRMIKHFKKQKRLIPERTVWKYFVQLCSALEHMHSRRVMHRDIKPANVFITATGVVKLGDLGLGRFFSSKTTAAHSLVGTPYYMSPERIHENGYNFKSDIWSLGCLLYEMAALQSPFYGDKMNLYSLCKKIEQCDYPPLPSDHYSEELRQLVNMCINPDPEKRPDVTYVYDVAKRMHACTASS
T1 sequence (Q96SW2 whole entry): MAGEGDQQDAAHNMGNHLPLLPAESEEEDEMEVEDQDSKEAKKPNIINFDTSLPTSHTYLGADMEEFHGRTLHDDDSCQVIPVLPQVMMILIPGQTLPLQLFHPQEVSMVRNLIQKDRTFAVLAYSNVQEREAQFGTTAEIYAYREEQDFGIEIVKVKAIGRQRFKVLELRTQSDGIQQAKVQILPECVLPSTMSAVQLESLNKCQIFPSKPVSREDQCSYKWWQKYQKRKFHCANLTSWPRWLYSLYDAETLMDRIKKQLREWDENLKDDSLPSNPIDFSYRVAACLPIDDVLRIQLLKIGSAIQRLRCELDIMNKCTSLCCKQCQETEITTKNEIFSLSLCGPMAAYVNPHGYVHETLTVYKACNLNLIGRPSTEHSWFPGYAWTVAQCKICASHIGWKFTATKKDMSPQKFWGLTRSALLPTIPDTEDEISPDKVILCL
T1 sequence (Q16531 whole entry partner): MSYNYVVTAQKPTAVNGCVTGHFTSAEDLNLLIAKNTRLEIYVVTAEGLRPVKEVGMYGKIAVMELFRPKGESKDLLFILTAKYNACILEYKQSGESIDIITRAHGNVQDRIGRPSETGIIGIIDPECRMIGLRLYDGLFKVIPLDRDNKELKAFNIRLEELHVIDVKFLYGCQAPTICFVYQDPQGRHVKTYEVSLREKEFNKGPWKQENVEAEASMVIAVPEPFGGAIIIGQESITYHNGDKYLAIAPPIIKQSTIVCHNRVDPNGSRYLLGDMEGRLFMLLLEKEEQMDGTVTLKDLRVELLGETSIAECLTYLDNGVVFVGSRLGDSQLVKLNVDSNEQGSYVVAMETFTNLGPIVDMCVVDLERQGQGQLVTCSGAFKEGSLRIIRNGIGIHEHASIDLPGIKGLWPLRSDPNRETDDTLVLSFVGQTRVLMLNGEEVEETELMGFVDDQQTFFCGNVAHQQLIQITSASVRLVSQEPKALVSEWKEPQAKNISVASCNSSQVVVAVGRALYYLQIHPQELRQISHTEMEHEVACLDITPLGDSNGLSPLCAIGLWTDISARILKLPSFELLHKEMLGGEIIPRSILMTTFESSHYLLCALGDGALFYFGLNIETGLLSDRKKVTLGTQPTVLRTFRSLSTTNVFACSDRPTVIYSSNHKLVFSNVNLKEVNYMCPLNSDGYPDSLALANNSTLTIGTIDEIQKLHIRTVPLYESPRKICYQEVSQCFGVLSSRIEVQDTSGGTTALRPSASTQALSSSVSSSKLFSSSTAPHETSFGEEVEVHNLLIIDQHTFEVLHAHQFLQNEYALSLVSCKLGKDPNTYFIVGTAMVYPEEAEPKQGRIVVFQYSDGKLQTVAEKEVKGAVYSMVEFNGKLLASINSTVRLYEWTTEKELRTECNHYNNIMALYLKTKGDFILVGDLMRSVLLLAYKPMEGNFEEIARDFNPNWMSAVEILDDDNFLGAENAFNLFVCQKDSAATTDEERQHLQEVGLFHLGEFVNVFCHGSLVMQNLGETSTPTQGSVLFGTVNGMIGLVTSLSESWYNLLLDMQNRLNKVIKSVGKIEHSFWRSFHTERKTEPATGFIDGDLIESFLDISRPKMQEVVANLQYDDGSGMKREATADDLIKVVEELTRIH
Chain of NEK7-HiBiT protein (Q8TDX7 whole entry): as the sequence (Q8TDX7 whole entry) above
Chain of NEK7-HiBiT protein (Q96SW2 whole entry, further chain): as the sequence (Q96SW2 whole entry) above
Chain of NEK7-HiBiT protein (Q16531 whole entry partner): as the sequence (Q16531 whole entry partner) above

| SMILES | EC50 [1] [nM] | Normalized AlphaLISA ternary complex average signal at 1 μM molecule [2] | Levels of NEK7-HiBiT Protein (as a % of DMSO control) (NEK7-HiBiT protein) | activation at 1 µM [2] [%] |
| --- | --- | --- | --- | --- |
| CCCCC1CCC(c2ccc3c(c2)CN(C2CCC(=O)NC2=O)C3=O)OC1 (single isomer, unassigned) [70 Isomer 1, 3-(5-(5-butyltetrahydro-2H-pyran-2-yl)-1-oxoisoindolin-2-yl)piperidine-2,6-dione] | > 3160 | D (Normalized activity < 10%) | D (Levels of NEK7-HiBiT Protein ≥ 75%) |  |
| CCCCC1CCC(c2ccc3c(c2)CN(C2CCC(=O)NC2=O)C3=O)OC1 (single isomer, unassigned) [70 Isomer 2, 3-(5-(5-butyltetrahydro-2H-pyran-2-yl)-1-oxoisoindolin-2-yl)piperidine-2,6-dione] | 1000 to 3160 | A (Normalized activity > 80%) | B (Levels of NEK7-HiBiT Protein > 25% and ≤50%) |  |
| O=C1CCC(N2Cc3cc(C4CCC(c5ccccc5)CO4)ccc3C2=O)C(=O)N1 (single isomer, unassigned) [74 Isomer 1, 3-(1-oxo-5-(5-phenyltetrahydro-2H-pyran-2-yl)isoindolin-2-yl)piperidine-2,6-dione] | > 3160 | D (Normalized activity < 10%) | D (Levels of NEK7-HiBiT Protein ≥ 75%) |  |
| O=C1CCC(N2Cc3cc(C4CCC(c5ccccc5)CO4)ccc3C2=O)C(=O)N1 (single isomer, unassigned) [74 Isomer 2, 3-(1-oxo-5-(5-phenyltetrahydro-2H-pyran-2-yl)isoindolin-2-yl)piperidine-2,6-dione] | 100 to 316 | A (Normalized activity > 80%) | A (Levels of NEK7-HiBiT Protein ≤ 25%) |  |
| O=C1CCC(N2Cc3cc(-c4ccc5ccccc5n4)ccc3C2=O)C(=O)N1 (stereo not drawn) [5(2), 3-(1-oxo-5-(quinolin-2-yl)isoindolin-2-yl)piperidine-2,6-dione] | 100 to 316 |  | B (Levels of NEK7-HiBiT Protein > 25% and ≤50%) | > 80 |
| O=C1CCC(N2Cc3cc(-c4cc5ccccc5cn4)ccc3C2=O)C(=O)N1 (stereo not drawn) [6(2), 3-(5-(isoquinolin-3-yl)-1-oxoisoindolin-2-yl)piperidine-2,6-dione] | 100 to 316 |  | B (Levels of NEK7-HiBiT Protein > 25% and ≤50%) | > 80 |
| CC(=O)Nc1ccc(-c2ccc3c(c2)CN(C2CCC(=O)NC2=O)C3=O)nc1 (stereo not drawn) [7(2), N-(6-(2-(2,6-dioxopiperidin-3-yl)-1-oxoisoindolin-5-yl)pyridin-3-yl)acetamide] | 100 to 316 |  | B (Levels of NEK7-HiBiT Protein > 25% and ≤50%) | > 80 |
| O=C1CCC(N2Cc3cc(-c4ccc(C(F)(F)F)cn4)ccc3C2=O)C(=O)N1 (stereo not drawn) [16(2), 3-(1-oxo-5-(5-(trifluoromethyl)pyridin-2-yl)isoindolin-2-yl)piperidine-2,6-dione] | 316 to 1000 |  | A (Levels of NEK7-HiBiT Protein ≤ 25%) | > 80 |
| O=C1CCC(N2C(=O)c3ccc(-c4ccccn4)c4cccc2c34)C(=O)N1 (stereo not drawn) [23(2), 3-(2-oxo-5-(pyridin-2-yl)benzo[cd]indol-1 (2H)-yl)piperidine-2,6-dione] | < 100 |  | B (Levels of NEK7-HiBiT Protein > 25% and ≤50%) | > 80 |
| CC1c2cc(-c3ccccn3)ccc2C(=O)N1C1CCC(=O)NC1=O (stereo not drawn) [24(2), 3-(3-methyl-1-oxo-5-(pyridin-2-yl)isoindolin-2-yl)piperidine-2,6-dione] | 100 to 316 |  | A (Levels of NEK7-HiBiT Protein ≤ 25%) | > 80 |
| COc1ccc(-c2ccc3c(c2)CN(C2CCC(=O)NC2=O)C3=O)nc1 (stereo not drawn) [25(2), 3-(5-(5-methoxypyridin-2-yl)-1-oxoisoindolin-2-yl)piperidine-2,6-dione] | 100 to 316 |  | A (Levels of NEK7-HiBiT Protein ≤ 25%) | > 80 |
